Measurements published in PMC3900303 (Toxicology and applied pharmacology, 2013).
Read-outs that look alike come from different tables or passages of the source. Blank lines part the entries; values can stand above or below the compound they belong to.

Experiments:
[1] = test system: Human iPSC-derived cardiomyocytes; assay: High-throughput cardiomyocyte beating assay; conditions: for effect on spacing between peaks and regularity / effect on the beating rate / beat rate / chronotrope effect: general clustering analysis of concentration-response; for effect on the beating rate / beat rate: 3 nM to 30 μM; for effect on beating parameters at 30 minutes: 30 min exposure; for impact on the shape of the peaks: compounds known to prolong the QT interval; for effect on beating: at 3 μM; for hormesis-like concentration effect on beating rate: low vs high concentrations
[2] = test system: Human iPSC-derived cardiomyocytes
[3] = test system: Human iPSC-derived cardiomyocytes; assay: Cell viability imaging; format: cell-based; conditions: evaluated 24 hrs after treatment

- beating profile ([1]; multi-parametric peak pattern): appearance of wide peaks
SMILES: CCCCN1CCCCC1C(=O)Nc1c(C)cccc1C (stereo not drawn) [bupivacaine]

- effect on spacing between peaks and regularity [1]: affected
- effect on the beating rate / beat rate [1]: little effect
SMILES: CC(=O)O.O=C(NCC1CCCCN1)c1cc(OCC(F)(F)F)ccc1OCC(F)(F)F (stereo not drawn) [flecainid acetate]

- effect on beating parameters at 30 minutes [1]: did not have an effect
SMILES: O=C(O)Cc1ccccc1Nc1c(Cl)cccc1Cl [diclofenac]

SMILES: N.N.[Cl][Pt][Cl] [cisplatin, cis-diamineplatinum(II)dichloride]
- effect on beating parameters at 30 minutes [2]: did not have an effect

SMILES: CN(C)CCCN1c2ccccc2CCc2ccccc21 [imipramine]
- impact on the shape of the peaks [1]: profound impact

SMILES: C[C@H]1O[C@@H](O[C@H]2[C@@H](O)C[C@H](O[C@H]3[C@@H](O)C[C@H](O[C@H]4CC[C@@]5(C)[C@H](CC[C@@H]6[C@@H]5CC[C@]5(C)[C@@H](C7=CC(=O)OC7)CC[C@]65O)C4)O[C@@H]3C)O[C@@H]2C)C[C@H](O)[C@@H]1O [digitoxin]
- effect on beating [1]: blocked beating completely

SMILES: CCN(CC)CCNC(=O)c1ccc(N)cc1 [procainamide]
- impact on the shape of the peaks [1]: profound impact

- effect on the beating rate / beat rate [1]: strongly inhibited
SMILES: COC(=O)C1=C(C)NC(C)=C(C(=O)OCCN(C)Cc2ccccc2)C1c1cccc([N+](=O)[O-])c1 (stereo not drawn) [nicardipine]

- effect on the beating rate / beat rate [1]: strongly inhibited
SMILES: CC(C)(C)c1ccc(C(O)CCCN2CCC(C(O)(c3ccccc3)c3ccccc3)CC2)cc1 (stereo not drawn) [terfenadine]

- effect on beating parameters at 30 minutes [1]: did not have an effect
SMILES: CN(CCOc1ccc(CC2SC(=O)NC2=O)cc1)c1ccccn1 (stereo not drawn) [rosiglitazone]

SMILES: CNCCCN1c2ccccc2CCc2ccccc21 [desipramine]
- impact on the shape of the peaks [1]: profound impact

- effect on beating [1]: blocked beating completely
SMILES: C[C@H]1O[C@@H](O[C@H]2[C@@H](O)C[C@H](O[C@H]3[C@@H](O)C[C@H](O[C@H]4CC[C@@]5(C)[C@H](CC[C@@H]6[C@@H]5C[C@@H](O)[C@]5(C)[C@@H](C7=CC(=O)OC7)CC[C@]65O)C4)O[C@@H]3C)O[C@@H]2C)C[C@H](O)[C@@H]1O [digoxin]
- hormesis-like concentration effect on beating rate [1]: increased at low concentrations, but decreased or completely stopped at high doses

- effect on beating parameters at 30 minutes [1]: did not have an effect
SMILES: COc1cccc2c1C(=O)c1c(O)c3c(c(O)c1C2=O)C[C@@](O)(C(=O)CO)C[C@@H]3O[C@H]1C[C@H](N)[C@H](O)[C@H](C)O1 [doxorubicin]

SMILES: C=C[C@H]1C[N@@]2CC[C@H]1C[C@@H]2[C@@H](O)c1ccnc2ccc(OC)cc12 [quinidine]
- impact on the shape of the peaks [1]: profound impact

- effect on the beating rate / beat rate [1]: strongly inhibited
SMILES: COc1ccc([C@@H]2Sc3ccccc3N(CCN(C)C)C(=O)[C@@H]2OC(C)=O)cc1 [diltiazem]

- effect on beating parameters at 30 minutes [1]: did not have an effect
SMILES: CC(C)Cc1ccc(C(C)C(=O)O)cc1 (stereo not drawn) [ibuprofen]

- effect on beating parameters at 30 minutes [1]: did not have an effect
SMILES: COc1cccc2c1C(=O)c1c(O)c3c(c(O)c1C2=O)C[C@@](O)(C(C)=O)C[C@@H]3O[C@H]1C[C@H](N)[C@H](O)[C@H](C)O1 [daunorubicin]

- effect on beating parameters at 30 minutes [1]: did not have an effect
SMILES: Cc1cnc(NC(=O)C2=C(O)c3ccccc3S(=O)(=O)N2C)s1 [meloxicam]

- chronotrope effect [1]: positive chronotrope effect
SMILES: CC(C)NCC(O)c1ccc(O)c(O)c1 (stereo not drawn) [isoproterenol]

- effect on the beat rate ([1]; 30 min exposure time-point): no effect
- effect on the peak shape parameters ([1]; 30 min exposure time-point (Figure 2)): clear concentration-dependent effect
- effect on spacing between peaks and regularity [1]: affected
- effect on the beating rate / beat rate [1]: little effect
SMILES: CC(C)N(CCC(C(N)=O)(c1ccccc1)c1ccccn1)C(C)C (stereo not drawn) [disopyramide]
- effect on cell viability [3]: No effect
- impact on the shape of the peaks [1]: profound impact

SMILES: CC(C)NCC(O)c1ccc(NS(C)(=O)=O)cc1 (stereo not drawn) [sotalol]
- impact on the shape of the peaks [1]: profound impact

- effect on beating parameters at 30 minutes [1]: did not have an effect
SMILES: CS(=O)(=O)c1ccc(C2=C(c3ccccc3)C(=O)OC2)cc1 [rofecoxib]

- effect on the beating rate / beat rate [1]: strongly inhibited
SMILES: CC(C)COCC(CN(Cc1ccccc1)c1ccccc1)N1CCCC1 (stereo not drawn) [bepridil]

- effect on beating parameters at 30 minutes [1]: did not have an effect
SMILES: CCc1ccc(CCOc2ccc(CC3SC(=O)NC3=O)cc2)nc1 (stereo not drawn) [pioglitazone]

- effect on beating parameters at 30 minutes [1]: did not have an effect
SMILES: O=c1[nH]cc(F)c(=O)[nH]1 [5-fluoracil]

- chronotrope effect [1]: negative chronotrope effect
SMILES: CCCCc1oc2ccccc2c1C(=O)c1cc(I)c(OCCN(CC)CC)c(I)c1 [amiodarone]
- impact on the shape of the peaks [1]: profound impact

- effect on the beating rate / beat rate [1]: strongly inhibited
SMILES: COc1ccc(CCN2CCC(Nc3nc4ccccc4n3Cc3ccc(F)cc3)CC2)cc1 [astemizol]

SMILES: OCc1cc(C(O)CNCCCCCCOCCCCc2ccccc2)ccc1O (stereo not drawn) [salmeterol]
- hormesis-like concentration effect on beating rate [1]: increased at low concentrations, but decreased or completely stopped at high doses

- chronotrope effect [1]: negative chronotrope effect
SMILES: CC(C)NCC(O)COc1cccc2[nH]ccc12 (stereo not drawn) [pindolol]

SMILES: CCN(CC)CC(=O)Nc1c(C)cccc1C [lidocaine]
- effect on spacing between peaks and regularity [1]: affected
- effect on the beating rate / beat rate [1]: little effect
